{"source": "patent US20150197492A1", "about": "“NOVEL INDENO[1,2-c]QUINOLIN-11-ONE DERIVATIVES, PREPARATION METHOD AND APPLICATION THEREOF” (National Defense Medical Center, priority 2014, published 2015)", "test_in_all_cases": "cells", "format_in_all_cases": "cell-based", "key": {"SK-MEL-28": {"system": "SK-MEL-28", "settings": "SK-MEL-28 (Melanoma), 10 μM, 48 hours"}, "SK-MEL-2": {"system": "SK-MEL-2", "settings": "SK-MEL-2 (Melanoma), 10 μM, 48 hours"}, "NCI-H460": {"system": "NCI-H460", "settings": "NCI-H460 (Non-Small Cell Lung Cancer), 10 μM, 48 hours"}, "NCI/ADR-RES": {"system": "NCI/ADR-RES", "settings": "NCI/ADR-RES (Ovarian Cancer), 10 μM, 48 hours"}, "UO-31": {"system": "UO-31", "settings": "UO-31 (Renal Cancer), 10 μM, 48 hours"}, "HS 578T": {"system": "HS 578T", "settings": "HS 578T (Breast Cancer), 10 μM, 48 hours"}, "HCT-15": {"system": "HCT-15", "settings": "HCT-15 (Colon Cancer), 10 μM, 48 hours"}, "MDA-MB-468": {"system": "MDA-MB-468", "settings": "MDA-MB-468 (Breast Cancer), 10 μM, 48 hours"}, "T-47D": {"system": "T-47D", "settings": "T-47D (Breast Cancer), 10 μM, 48 hours"}, "MDA-MB-231/ATCC": {"system": "MDA-MB-231/ATCC", "settings": "MDA-MB-231/ATCC (Breast Cancer), 10 μM, 48 hours"}, "RXF 393": {"system": "RXF 393", "settings": "RXF 393 (Renal Cancer), 10 μM, 48 hours"}, "MALME-3M": {"system": "MALME-3M", "settings": "MALME-3M (Melanoma), 10 μM, 48 hours"}, "HOP-92": {"system": "HOP-92", "settings": "HOP-92 (Non-Small Cell Lung Cancer), 10 μM, 48 hours"}, "MOLT-4": {"system": "MOLT-4", "settings": "MOLT-4 (Leukemia), 10 μM, 48 hours"}, "OVCAR-5": {"system": "OVCAR-5", "settings": "OVCAR-5 (Ovarian Cancer), 10 μM, 48 hours"}, "SK-OV-3": {"system": "SK-OV-3", "settings": "SK-OV-3 (Ovarian Cancer), 10 μM, 48 hours"}, "SNB-75": {"system": "SNB-75", "settings": "SNB-75 (CNS Cancer), 10 μM, 48 hours"}, "HT29": {"system": "HT29", "settings": "HT29 (Colon Cancer), 10 μM, 48 hours"}, "SN12C": {"system": "SN12C", "settings": "SN12C (Renal Cancer), 10 μM, 48 hours"}, "OVCAR-3": {"system": "OVCAR-3", "settings": "OVCAR-3 (Ovarian Cancer), 10 μM, 48 hours"}, "MCF7": {"system": "MCF7", "settings": "MCF7 (Breast Cancer), 10 μM, 48 hours"}, "KM12": {"system": "KM12", "settings": "KM12 (Colon Cancer), 10 μM, 48 hours"}, "OVCAR-8": {"system": "OVCAR-8", "settings": "OVCAR-8 (Ovarian Cancer), 10 μM, 48 hours"}, "HCT-116": {"system": "HCT-116", "settings": "HCT-116 (Colon Cancer), 10 μM, 48 hours"}, "HOP-62": {"system": "HOP-62", "settings": "HOP-62 (Non-Small Cell Lung Cancer), 10 μM, 48 hours"}}}
{"smiles": "COc1nc2ccccc2c2c1-c1ccc(Cl)cc1C2=O", "note": "[SJ-27, 6-Methoxy-9-chloro-11H-indeno[1,2-c]quinolin-11-one]", "values": [{"measurement": "growth percentage", "setting": "SK-MEL-28", "result": 106.24, "unit": "%"}, {"measurement": "growth percentage", "setting": "SK-MEL-2", "result": 109.44, "unit": "%"}, {"measurement": "growth percentage", "setting": "NCI-H460", "result": 98.27, "unit": "%"}, {"measurement": "growth percentage", "setting": "NCI/ADR-RES", "result": 94.29, "unit": "%"}, {"measurement": "growth percentage", "setting": "UO-31", "result": 55.69, "unit": "%"}, {"measurement": "growth percentage", "setting": "HS 578T", "result": 92.74, "unit": "%"}, {"measurement": "growth percentage", "setting": "HCT-15", "result": 94.98, "unit": "%"}, {"measurement": "growth percentage", "setting": "MDA-MB-468", "result": 99.51, "unit": "%"}, {"measurement": "growth percentage", "setting": "T-47D", "result": 78.97, "unit": "%"}, {"measurement": "growth percentage", "setting": "MDA-MB-231/ATCC", "result": 74.61, "unit": "%"}, {"measurement": "growth percentage", "setting": "RXF 393", "result": 114.49, "unit": "%"}, {"measurement": "growth percentage", "setting": "MALME-3M", "result": 107.54, "unit": "%"}, {"measurement": "growth percentage", "setting": "HOP-92", "result": 77.75, "unit": "%"}, {"measurement": "growth percentage", "setting": "MOLT-4", "result": 110.33, "unit": "%"}, {"measurement": "growth percentage", "setting": "OVCAR-5", "result": 96.81, "unit": "%"}, {"measurement": "growth percentage", "setting": "SK-OV-3", "result": 119.79, "unit": "%"}, {"measurement": "growth percentage", "setting": "SNB-75", "result": 59.75, "unit": "%"}, {"measurement": "growth percentage", "setting": "HT29", "result": 111.60, "unit": "%"}, {"measurement": "growth percentage", "setting": "SN12C", "result": 89.48, "unit": "%"}, {"measurement": "growth percentage", "setting": "OVCAR-3", "result": 111.89, "unit": "%"}, {"measurement": "growth percentage", "setting": "MCF7", "result": 71.98, "unit": "%"}, {"measurement": "growth percentage", "setting": "KM12", "result": 98.35, "unit": "%"}, {"measurement": "growth percentage", "setting": "OVCAR-8", "result": 98.75, "unit": "%"}, {"measurement": "growth percentage", "setting": "HCT-116", "result": 88.60, "unit": "%"}, {"measurement": "growth percentage", "setting": "HOP-62", "result": 96.01, "unit": "%"}]}
